Experimental data: US20250295701A1, “Kit for Induction of Continuous Expansion of Hepatoblast Organoids and/or Hepatocyte Organoids Under 3D Suspension Conditions and Use Thereof” (South China University of Technology, priority 2022, published 2025)

How the values were obtained:
hepatoblasts = assay: Step-down removal of factors from the HB organoid expansion medium; assay type: cell-based, human; conditions: for Ki67 expression level after removing the factor: flow cytometry, compared with complete medium group
From the text: Based on the related-signaling pathways affecting the regeneration/proliferation/expansion of hepatoblasts in vivo and in vitro, the development of the medium formula for HB organoid expansion was to initially select small molecules or cytokines corresponding to the pathways to mimic the process of hepatic progenitor regeneration, and finally the combination of small molecules with cytokines had been established. Through comprehensive investigation on a large amount of literature, it had been shown that Wnt, TGFβ, cAMP, Activin, EGF and HGF pathways were related to the regeneration of hepatoblasts. […] Afterwards, the step-down method through removing factors one by one from the combination had been used to verify which small molecule/cytokine was essential for the long-term culture of hepatoblasts. […] Finally, flow cytometry had been used to detect the expression levels of cell proliferation marker Ki67. […] Therefore, finally the expansion medium of HB organoid was determined as the fifth medium in Example 1: IMDM medium supplemented with 10 % w/w FBS, 1% w/w ITS, 1% w/w NEAA, 1% w/w GlutaMAX, 10 mM Nicotinamide, 5 μM CHIR99021, 10 µM SB431542, 10 μM FSK, 20 ng/mL FGF-4, 20 ng/mL BMP4, 20 ng/mL EGF and 5% Matrigel.

[1] = system: polarized hepatocyte organoids; assay: Cholestasis detection by CDFDA staining; assay type: cell-based, human; conditions: drug at its IC25 value for 48 hours
Protocol: In addition, CDFDA staining was used to test the appearance of the cholestasis in polarized hepatocyte organoids which are treated by these drugs at IC25 values of each drug for 48 hours, and then the occurrence of the cholestasis after drug treatment was evaluated by whether fluorescent CDFDA product is transported into bile canaliculi through apical protein.

[2] = system: polarized hepatocyte organoids; assay: Drug toxicology analysis (cell viability, IC50) in polarized hepatocyte organoids; assay type: cell-based, human; conditions: 48 hours after drug treatment, cell viability detection kit
Protocol: Polarized hepatocyte organoids (could be used in drug screening models 6 days after the maturation) after the maturation from the differentiation were collected, and distributed into ultra-low attachment 96-well culture plates using the pipette, about 10-20 organoids were seeded in each well, then different drugs could be employed for toxicology analysis. In this Example, toxicology analysis was performed on 8 kinds of drugs (Mannitol, Troglitazone, Chlorpromazine, Diclofenac, Cyclosporine A, Nefazodone, Tolcapone, Bosentan) to detect the ability of polarized hepatocyte organoids to predict the toxicity of each drug during drug screening/toxicology analysis. During the toxicology analysis, at least 7 different concentrations were selected for each drug, and wells in triplicate were performed for each concentration. Forty-eight hours after drug treatment, cell viabilities are detected using cell viability detection kit and IC50 curves were drawn. Finally, IC50 value of each drug for each cell type was calculated. In addition to polarized hepatocyte organoids, non-polarized hepatocyte spheroids and HepG2 cells (hepatoma cell lines, commonly used for hepatocyte drug screening) spheroids were also simultaneously used for drug toxicology analysis.

hepatocyte organoids = assay: Hepatocyte lipid accumulation model induced with oleic acid; assay type: cell-based, human
Protocol: After mature hepatocyte organoids were differentiated from long-term cultured HB organoids (the lipid accumulation model could be developed 6 days after the differentiation), oleic acid (OA) was used with the concentrations at 200 and 800 μM to induce the lipid accumulation model. […] Next spermidine (SPD), a drug that alleviates lipid accumulation in hepatocytes, was used to conduct the rescue. SPD was added into the medium at 200 μM at the same time during the treatment with OA. […] The above results lay the foundation for the subsequent applications of polarized hepatocyte organoids in the development of drugs related to hepatocyte lipid accumulation and the treatment of lipid accumulation.

[3] = system: phase I metabolizing enzymes
[4] = factor removed from complete medium

In the case of `Cc1c[nH]c(-c2cnc(NCCNc3ccc(C#N)cn3)nc2-c2ccc(Cl)cc2Cl)n1` [CHIR99021], the “efficiency of cloning formation after removing the factor” value (hepatoblasts; [4]) is reported as “significantly reduced” and the “morphological changes of cell spheroids after removing the factor” value (hepatoblasts; [4]) is reported as “unable to form hollow organoid-like structures”.
In the case of `O=C(O)Cc1ccccc1Nc1c(Cl)cccc1Cl` [Dicofenac, Diclofenac], the “occurrence of the cholestasis” value [1] is reported as “do not induce the cholestasis”.
With `OC[C@@H](O)[C@@H](O)[C@H](O)[C@H](O)CO` [Mannitol] the toxicity to hepatocytes [2] was “no toxic” and the “occurrence of the cholestasis” value [1] was “do not induce the cholestasis”.
`CCCCCCCC/C=C\CCCCCCCC(=O)O` [OA, oleic acid] was tested, and the “levels of intracellular ROS” value (hepatocyte organoids; OA 200 and 800 μM, flow cytometry) was “increased”, the “levels of intracellular triglyceride” value (hepatocyte organoids; OA 200 and 800 μM, kit) was “increase” and the “content of lipid droplets” value (hepatocyte organoids; OA 200 and 800 μM, two days, oil red staining) was “gradually increased”. The “expression levels of lipid accumulation related genes FASN and PLIN2” value (hepatocyte organoids; after OA modeling, qPCR) was “significantly increased”.
In the case of `NC(=O)c1ccc(-c2nc(-c3ccc4c(c3)OCO4)c(-c3ccccn3)[nH]2)cc1` [SB431542], the “efficiency of cloning formation after removing the factor” value (hepatoblasts; [4]) is reported as “significantly reduced”.
In the case of `NCCCCNCCCN` [SPD, spermidine], the “relative number of lipid droplets” value (hepatocyte organoids; SPD 200 μM added with OA, two days) is reported as “significantly reduced” and the “expression levels of genes related to lipid accumulation” value (hepatocyte organoids; SPD 200 μM added with OA, two days, qPCR) is reported as “decreased”.
In the case of `Cc1ccc(C(=O)c2cc(O)c(O)c([N+](=O)[O-])c2)cc1` [Tolcapone], the “occurrence of the cholestasis” value [1] is reported as “do not induce the cholestasis”.
In the case of `C[C@@H](N)[C@H]1CC[C@H](C(=O)Nc2ccncc2)CC1` [Y27632, Y-27632], the “effect of Rock inhibitor during the expansion of HB organoids” value (hepatoblasts; added at cell inoculation) is reported as “only maintains cell viability at day 0” and the “Ki67 expression level after removing the factor” value (hepatoblasts) is reported as “higher expression peak”.
`COc1ccc2[nH]c([S+]([O-])Cc3ncc(C)c(OC)c3C)nc2c1` (centres unmarked) [omeprazole] was tested, and the “drug metabolism levels (metabolic function of CYP3A4, CYP2C9 and CYP1A2)” value [3] was “higher”.
In the case of hepatocyte growth factor [HGF], the “Ki67 expression level after removing the factor” value (hepatoblasts) is reported as “higher expression peak”.
